Experimental data taken from patent US7217413B1, “Use of novel agents inducing cell death in synergy with interferons” (priority 1998, dated 2007).
Residues, ends and D or L forms follow the SMILES beside them. *: point of attachment. Cbz = O=C(OCc1ccccc1)*; CH2F = FC*

Key:
PML protein = assay: Western blot of PML protein expression and location on nuclear bodies; format: cell-based, rat; conditions: REF (T) cells
Description: The REF (T) and MEF (T) cells are rat and mouse embryonic fibroblasts immortalized by an SV4DT expression vector. […] The Western blot experiments with the endogenous rat PML protein were carried out with the monoclonal antibody 5E10 which detects both rat PML and human PML.

REF (T) PML cells [1] = assay: TUNEL test of cell death induced by IFNα; format: cell-based, rat; conditions: for cell death evaluated by TUNEL (positive TUNEL signal): with 1 000 U/ml of IFNα
Description: (§1) The REF (T) and MEF (T) cells are rat and mouse embryonic fibroblasts immortalized by an SV4DT expression vector. […] For clonogenicity tests, the cells were transfected with 10 μg of SRαtkneo-PML or SRαkneo on culture dishes 10 cm in diameter and selected with neomycin (500 μg/ml). To obtain inducible clones, a pool of RET (T) cells was cotransfected with the plasmid pKSmMt-PML and a hygromycin resistance vector (DSP-Hygro). The resistant colonies were examined for the expression of PML after four hours of treatment with ZnCl2 (150 μM) and subjected to a second cycle of cloning by limiting dilution. Inducible CHO clones were constructed in a similar manner. The monocytes were prepared according to the method of Estaquier et al., 1997. Etoposide (used at 100 μM for 16 to 24 hours) was obtained from Biomol Research Laboratories, zVAD (benzyloxycarbonyl-Val-Ala-Asp fluoromethyl ketone, used at 250 μg/ml) is marketed by Bachem and rat IFNα by Access BioMedical. The human α-interferon was provided by Schering-Plough. The antibodies against the human PML protein are described in the article by Daniel et al., 1993. The Western blot experiments with the endogenous rat PML protein were carried out with the monoclonal antibody 5E10 which detects both rat PML and human PML.
The cells were treated for 2 hours with 150 μM of ZnCl2 (unless otherwise stated) in the presence or absence of heat-inactivated foetal calf serum, and then the cells were washed and incubated in a ZnCl2-free medium. The TUNEL test was carried out according to the manufacturer's instructions (Boehringer Mannheim, kit for detection of cell death in situ), with the exception of the fixing step (4% formaldehyde in phosphate PBS buffer for 10 minutes). The cellular DNA content was evaluated by incubating for 10 minutes in propidium iodide at 50 μg/ml, in the presence of Rnase A at 100 μg/ml at 4° C. Analysis of the expression of phosphatidylserine on the outer sheet of the cell membranes was carried out using Annexin-V-fluos labelling (Boehringer Mannheim) and a loss of mitochondrial polarity with Rhodamin 123 (molecular probes) according to the manufacturer's instructions. The samples were analysed on a FACScan analyser (Lysis II software, Becton Dickinson). For the cleavage of the substrate with caspases, 5×10^6 cells were washed in PBS buffer, and incubated for one hour at 4° C. in 200 μl of lysis buffer (10 mM Hepes, pH 7.4, 2 mM EDTA, 2 mM DTT, 0.1% CHAPS). After centrifugation, 20 μl of supernatant and 180 μl of reaction buffer (100 mM Hepes, pH 7.4, 2% of glycerol, 5 mM DTT, 0.5 mM EDTA, 50 μM DEVD-pNA (Biomol Research Laboratories)) were mixed and the absorbence at 405 nm was measured after incubating for four hours at 37° C. The anti-PARP polyclonal antibody SA-252 is marketed by Biomol Research Laboratories.
The table below represents the cell death, evaluated by TUNEL, of REF (T) PML cells treated for two days with 1 000 U/ml of IFNα and 10^−6 M of As2O3 or of zVAD.

Primary monocytes = assay: Survival of primary monocytes exposed to α-interferon; format: cell-based
REF (T) PML cells [2] = assay: TUNEL test of cell death triggered by PML (ZnCl2 induction); format: cell-based, rat
Description: as §1
The cells were treated for 2 hours with 150 μM of ZnCl2 (unless otherwise stated) in the presence or absence of heat-inactivated foetal calf serum, and then the cells were washed and incubated in a ZnCl2-free medium. The TUNEL test was carried out according to the manufacturer's instructions (Boehringer Mannheim, kit for detection of cell death in situ), with the exception of the fixing step (4% formaldehyde in phosphate PBS buffer for 10 minutes). The cellular DNA content was evaluated by incubating for 10 minutes in propidium iodide at 50 μg/ml, in the presence of Rnase A at 100 μg/ml at 4° C. […] The samples were analysed on a FACScan analyser (Lysis II software, Becton Dickinson). […] After centrifugation, 20 μl of supernatant and 180 μl of reaction buffer (100 mM Hepes, pH 7.4, 2% of glycerol, 5 mM DTT, 0.5 mM EDTA, 50 μM DEVD-pNA (Biomol Research Laboratories)) were mixed and the absorbence at 405 nm was measured after incubating for four hours at 37° C. […]
It is known that the execution of programmed cell death involves the proteolytic activation—of caspases which induce the phenotypic changes in apoptosis by cleavage of nuclear and cytoplasmic proteins (Salvesen et al., 1997). […] Unlike etoposide, no significant cleavage of the colorimetric caspase substrates, YVAD-pNa (class 1 caspase, Boehringer Mannheim) and DEVD-pNA (class 3 caspase, Boehringer Mannheim) after induction with PML could be detected (FIG. 2B).

REF (T) PML cells [3] = assay: Kinetics of synchronized cell death after ZnCl2 induction of PML; format: cell-based, rat
Description: The cells were treated for 2 hours with 150 μM of ZnCl2 (unless otherwise stated) in the presence or absence of heat-inactivated foetal calf serum, and then the cells were washed and incubated in a ZnCl2-free medium. The TUNEL test was carried out according to the manufacturer's instructions (Boehringer Mannheim, kit for detection of cell death in situ), with the exception of the fixing step (4% formaldehyde in phosphate PBS buffer for 10 minutes). The cellular DNA content was evaluated by incubating for 10 minutes in propidium iodide at 50 μg/ml, in the presence of Rnase A at 100 μg/ml at 4° C. Analysis of the expression of phosphatidylserine on the outer sheet of the cell membranes was carried out using Annexin-V-fluos labelling (Boehringer Mannheim) and a loss of mitochondrial polarity with Rhodamin 123 (molecular probes) according to the manufacturer's instructions. The samples were analysed on a FACScan analyser (Lysis II software, Becton Dickinson). […] After centrifugation, 20 μl of supernatant and 180 μl of reaction buffer (100 mM Hepes, pH 7.4, 2% of glycerol, 5 mM DTT, 0.5 mM EDTA, 50 μM DEVD-pNA (Biomol Research Laboratories)) were mixed and the absorbence at 405 nm was measured after incubating for four hours at 37° C. […]

[4] = treated for two days, 10^-6 M of As2O3 or of zVAD

Compound	levels of expression of PML (PML protein)	kinetics of cell death induction (REF (T) PML cells [1]; compared with ZnCl2 induction)	cell death evaluated by TUNEL (positive TUNEL signal) (REF (T) PML cells [1]; [4]) [%]	cell death evaluated by TUNEL (positive TUNEL signal) (REF (T) PML cells [1]; treated for two days, 10^-6 M of As2O3 or of zVAD, listed as α-interferon) [%]	time to complete disappearance of the cell culture (Primary monocytes; α-interferon alone (1 000 U/ml))	positive cells / positive TUNEL signal (REF (T) PML cells [2]; ZnCl2 alone) [%]	time to synchronized cell death of the whole cell population (REF (T) PML cells [3]; 50 μM of ZnCl2) [h]	time to synchronized cell death of the whole cell population (REF (T) PML cells [3]; 150 μM of ZnCl2)	effect on cell death induced by PML (REF (T) PML cells [2]; ZnCl2 induction, FIG. 1C)	effect on apoptosis induced by etoposide (REF (T) PML cells [2]; etoposide-treated cells, FIG. 1C)	positive TUNEL signal (REF (T) PML cells [2]; zVAD and ZnCl2) [%]	cell death evaluated by TUNEL (REF (T) PML cells [1]; without IFNα, treated for two days, 10^-6 M of As2O3 or of zVAD) [%]	time to death of the whole cell population (Primary monocytes; zVAD added with α-interferon) [h]	cell death with zVAD alone (Primary monocytes; zVAD alone after seven days, three cultures out of eleven)	cell death with zVAD alone (Primary monocytes; zVAD alone for 20 days, most of the primary cultures (8/11))
IFNα	induces rat PML	same kinetics as 50 μM ZnCl2	42	42	seven										
[Cl-].[Cl-].[Zn+2] [ZnCl2]						45	48	six							
COC(=O)C[C@H](NC(=O)[C@H](C)NC(=O)[C@@H](NC(=O)OCc1ccccc1)C(C)C)C(=O)CF [zVAD, benzyloxycarbonyl-Val-Ala-Asp(O-methyl) fluoromethyl ketone] (Cbz-Val-Ala-Asp(OMe)-CH2F)	increased		60						does not inhibit cell death induced by PML	blocks apoptosis induced by etoposide	71	5	≤ 24	induced the death of part of the culture	Little or no cell death
